Data: patent US8198317B2, “Methylenedioxy phenolic compounds and their use to treat disease” (The Ohio State University Research Foundation, priority 2008, dated 2012)

Legend:
Humans [1] = test: Treatment of atherosclerosis in humans, primary prevention (Example 22); assay type: in vivo, human; conditions: oral, in excess of 12 months
From the text: (§1) Individuals with risk factors for atherosclerosis such as family history, hypertension and high cholesterol are known to be at risk for future cardiovascular events such as heart attacks and strokes. These individuals are on primary prevention treatments such as hypolipidemic drug therapy such as statins aspirin and anti-hypertensive agents such as ACE inhibitors, diuretics or calcium channel blockers. They also will receive an acceptable dose of a composition comprising a compound of the present invention in an acceptable carrier orally chronically for durations in excess of 12 months. In one study, 3,4-methylenedioxy phenyl acetate (INV 73); 3,4-methylenedioxy-6-nitrophenol (INV 74); 3,4-methylenedioxy-6-nitrophenyl acetate (INV 75); 3,4-Methylenedioxy 6-nitro phenyl lipoate (INV-7465) or 3,4-Methylenedioxy phenyl lipoate (INV-7065) are administered to these individuals. A repeat IVUS measurement is made at the end of the treatment period to assess the effect of the infusion of the composition on coronary atherosclerosis in the target vessel.

Humans [2] = test: Prevention or delay of onset of atherosclerosis in humans (Example 23); assay type: in vivo, human; conditions: 2 mg/kg to 50 mg/kg iv or im, one to six months
Experimental: Individuals with documented risk factors for atherosclerosis and having high plasma cholesterol levels have a ultrasound analysis of the coronary (IVUS), carotid (IMT) or popliteal arteries to establish a baseline measurement. A portion of these individuals are […] administered a composition comprising a compound of the present invention in an acceptable carrier at a dose of 2 mg/kg to 50 mg/kg intravenously (iv) or intramuscular (im) I to 3 times per week over a period of approximately one to six months. The following compounds are administered to these individuals: 3,4-methylenedioxy phenyl acetate (INV 73); 3,4-methylenedioxy-6-nitrophenol (INV 74); 3,4-methylenedioxy-6-nitrophenyl acetate (INV 75); 3,4-Methylenedioxy 6-nitro phenyl lipoate (INV-7465) or 3,4-Methylenedioxy phenyl lipoate (INV-7065). The other individuals receive the carrier alone. A new ultrasound analysis at the end of the treatment period indicates higher levels of plaque in the vessels of individuals receiving the carrier.

Patients [3] = test: Treatment of dyslipidemia in diabetic patients (Example 25); assay type: in vivo, human; conditions: oral, 12 months
From the text: Individuals with Type I and Type II diabetes are at risk for future cardiovascular events such as heart attacks, strokes and kidney disease. These individuals often have abnormalities in lipids such as elevations in triglycerides and VLDL cholesterol. They are on treatments such as hypolipidemic drug therapy such as statins and fibrates (Gemfibrozil or Fenofibrate) to lover cholesterol levels in conjunction with glycemia lowering strategies such as Insulin, PPAR γ agents, Metformin or sulfonylurea therapy. In addition to these treatments they will also receive an acceptable dose of a composition comprising a compound of the present invention in an acceptable carrier orally chronically for durations in excess of 12 months. In one study, (3,4-methylenedioxy phenyl acetate (INV 73); 3,4-methylenedioxy-6-nitrophenol (INV 74); 3,4-methylenedioxy-6-nitrophenyl acetate (INV 75); are administered to these individuals. The patients undergo lipid measurements at baseline and at the end of treatment for a 12 month duration. At the end of 12 months of treatment, there is lowering of VLDL cholesterol and a decrease in triglycerides.

[4] = tested on: Human Umbilical Vein Endothelial Cells (HUVECs); test: MTT cell toxicity assay; assay type: cell-based; conditions: HUVEC, dose range of 10 nM to 100 μM
Experimental: Cell Culture: All experiments were performed with cultured Human Umbilical Vein Endothelial Cells (HUVECs—Gibco, Invitrogen) and grown to confluence at 37° C. in a 5% CO2 humidified incubator, on tissue culture flasks previously coated with 1% gelatin in supplemented culture medium (M199 with 10% heat inactivated fetal calf serum, 100 U/ml penicillin, 100 μg/ml streptomycin, 2 mM glutamine, 10 mM HEPES, pH 7.4, heparin 12 I.U./ml, 1% retinal derived growth factor, Sigma). Following trypsin treatment, the cells were detached from the flasks and final mono-layers were prepared by seeding HUVECs on gelatin-precoated culture plates and then incubated for 24-48 h to ensure confluence. Cells up to the fourth passage were used for all experiments. Recombinant human TNF-α was purchased from R&D Systems (Minneapolis, Minn.).
Cell Toxicity Assays: Cellular toxicity was assessed by MTT [3-(4,5-dimethylthiazol-2-yl)-2,5-diphenyltetrazolium bromide] assay, a commercially available assay for assessment of cellular viability. INV-75 was added to HUVECs for 24 hours, and toxicity assays were performed at the end of this period. The MTT assay relies on the cellular reduction of positively charged tetrazolium salts to their intensely colored formazan product by mitochondrial dehydrogenases. Formazan production is decreased in the presence of impaired mitochondrial redox function and enhanced free radical production and may, therefore, be used as an index of cell viability responses to experimental interventions.
In short, after removing microtiter plates from the incubator, fresh medium containing a fixed volume of reconstituted MTT [3-(4,5-dimethylthiazol-2-yl)-2,5-diphenyltetrazlium bromide; final concentration: 0.5 mg/ml] was added to the wells; the plates were kept at 37° C. in a 5% CO2 environment for 2 h, and then the MTT solubilization solution provided by the manufacturer was added. The formazan product formed by the conversion of positively charged tetrazolium salts to the reduced state has low aqueous solubility and is present as purple crystals. Dissolving the formazan with a solubilization buffer (provided in kit) permits the convenient quantification of its formation. Optical density at OD 570 nm is then measured for each well on an absorbance plate reader. The within- and between-assay variability was 3 and 5%, respectively. Various concentrations of INV-75 was tested in cell based assays using the MTT assay, as described above. The concentrations tested ranged from 1 mM to 10 nM and the cells were exposed for over 24 hours in duration (FIG. 2).

Humans [5] = test: Treatment of established atherosclerosis in humans (Example 21); assay type: in vivo, human; conditions: oral, in excess of 12 months
From the text: as §1, with “established” for “risk factors for”, “with evidence of plaque in the coronary arteries, carotid arteries or peripheral arteries” for “such as family history, hypertension and high cholesterol”, “on” for “on primary prevention”, “as” for “as hypolipidemic drug therapy such as”, “statins” for “statins aspirin”, “orally and” for “orally”

Patients [6] = test: Treatment of patients with Type I and Type II diabetes (Example 24); assay type: in vivo, human; conditions: diabetic patients, oral, 12 months
From the text: Individuals with Type I and Type II diabetes are at risk for future cardiovascular events such as heart attacks, strokes and kidney disease. These individuals are on prevention treatments such as hypolipidemic drug therapy such as statins and anti-hypertensive agents such as ACE inhibitors. They are already receiving glycemia lowering strategies such as Insulin, PPARγ agents, Metformin or sulfonylurea therapy. They also will receive an acceptable dose of a composition comprising a compound of the present invention in an acceptable carrier orally chronically for durations in excess of 12 months. In one study, 3,4-Methylenedioxy 6-nitro phenyl lipoate (INV-7465) or 3,4-Methylenedioxy phenyl lipoate (INV-7065) are administered to these individuals. The patients undergo the following measurements: HbA1C to assess glycemic control, urinary microalbuminura, blood pressure and lipid measurements. At the end of 12 months of treatment, there is lowering of HbA1C and urinary microalbuminuria. There is an improvement in VLDL cholesterol and a decrease in triglycerides with any of these treatments [(3,4-methylenedioxy phenyl acetate (INV 73); 3,4-methylenedioxy-6-nitrophenol (INV 74); 3,4-methylenedioxy-6-nitrophenyl acetate (INV 75); 3,4-Methylenedioxy 6-nitro phenyl lipoate (INV-7465) or 3,4-Methylenedioxy phenyl lipoate (INV-7065)].

| SMILES | plaque in the atherosclerotic coronary artery (IVUS) (Humans [1]) | preventing or reducing atherosclerosis (ultrasound, versus carrier alone) (Humans [2]) | VLDL cholesterol (Patients [3]) | triglycerides (Patients [3]) | cell toxicity results compared with those of INV-75 [4] | plaque in the atherosclerotic coronary artery (IVUS) (Humans [5]) | VLDL cholesterol (Patients [6]) | triglycerides (Patients [6]) |
| --- | --- | --- | --- | --- | --- | --- | --- | --- |
| CC(=O)Oc1ccc2c(c1)OCO2 [INV-73, 3,4-Methylenedioxyphenyl acetate] | reduced | effective | lowering | decrease | identical | reduced | improvement | decrease |
| O=[N+]([O-])c1cc2c(cc1O)OCO2 [INV-74, 3,4-Methylenedioxy-6-nitrophenol] | reduced | effective | lowering | decrease | identical | reduced | improvement | decrease |
